Measured values as given in patent US20240368154A1 (GENOSCO Inc., priority 2023, published 2024).

Legend:
[1] = molecular target: T1, Recombinant ROCK1 (amino acids 1-477) (Homo sapiens, UniProt Q13464); assay: ROCK inhibition assay, LANCE Ultra TR-FRET kinase assay; type: biochemical; settings: at Km of ATP (table title); method: 1 mM ATP, 50 nM ULight-CREBtide substrate, 1 hour, room temperature
T1 construct: Recombinant ROCK1 (amino acids 1-477)
Method: (§1) Kinase IC50 was determined through an in vitro assay based on LANCE Ultra TR-FRET (Time-Resolved Fluorescence Resonance Energy Transfer) homogeneous technologies method (Perkin Elmer). Recombinant ROCK1 (amino acids 1-477) and ROCK2 (amino acids 5-554) proteins were purchased from Carna Biosciences and SignalChem. Compound activities were measured by Envision and IC50s were calculated. The assays were performed in white LUMITRAC™ 200 96 well half-area microplates from Greiner Bio-One. The kinase reaction buffer consisted of 50 mM HEPES pH 7.5, 1 mM EGTA, 10 mM MgCl2, 2 mM DTT and 0.01% Tween-20. Kinases were incubated with 50 nM (ULight-CREBtide) substrate in the presence of 1 mM (ROCK1) or 1 mM (ROCK2) of ATP. The kinase reaction was carried out for 1 hour before addition of a stopping buffer to a final of 10 mM EDTA and 0.6 nM of LANCE Ultra Europium anti-phospho-CREB (Ser133) antibody (PerkinElmer TRF0200) in LANCE detection buffer. All assay incubations were performed at room temperature, and the microplates were sealed with polyester film during that time. The reaction was incubated for 1 hour, and the signal was read in Envision in TR-FRET mode (excitation at 320 nm and emission at 615/665 nm).
(§2) As used herein, a way to describe potency of inhibitory activity (nM) is a value of inhibitory activity at 50% (IC50).

[2] = molecular target: T2, Recombinant ROCK2 (amino acids 5-554) (Homo sapiens, UniProt O75116); assay: as above; type: biochemical; settings: at Km of ATP (table title); method: 1 mM ATP, 50 nM ULight-CREBtide substrate, 1 hour, room temperature
T2 construct: ROCK2 (amino acids 5-554)
T2 sequence (O75116 5-554): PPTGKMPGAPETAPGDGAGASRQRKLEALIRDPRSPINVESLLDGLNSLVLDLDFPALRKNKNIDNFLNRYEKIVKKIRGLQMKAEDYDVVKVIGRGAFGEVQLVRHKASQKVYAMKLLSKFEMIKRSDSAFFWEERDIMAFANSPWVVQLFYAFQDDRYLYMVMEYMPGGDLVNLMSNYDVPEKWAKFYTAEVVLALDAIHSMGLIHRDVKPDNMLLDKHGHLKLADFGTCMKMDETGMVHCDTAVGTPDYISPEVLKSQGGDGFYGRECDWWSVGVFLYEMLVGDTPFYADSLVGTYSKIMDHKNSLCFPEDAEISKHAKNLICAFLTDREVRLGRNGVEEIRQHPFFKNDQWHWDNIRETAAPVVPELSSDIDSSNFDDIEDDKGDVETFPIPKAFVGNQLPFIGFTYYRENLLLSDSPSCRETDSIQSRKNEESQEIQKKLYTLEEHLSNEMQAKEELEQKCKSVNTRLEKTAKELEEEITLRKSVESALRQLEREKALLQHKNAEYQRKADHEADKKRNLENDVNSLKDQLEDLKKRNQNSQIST
Method: as §1, §2

T1 sequence (Q13464 1-477): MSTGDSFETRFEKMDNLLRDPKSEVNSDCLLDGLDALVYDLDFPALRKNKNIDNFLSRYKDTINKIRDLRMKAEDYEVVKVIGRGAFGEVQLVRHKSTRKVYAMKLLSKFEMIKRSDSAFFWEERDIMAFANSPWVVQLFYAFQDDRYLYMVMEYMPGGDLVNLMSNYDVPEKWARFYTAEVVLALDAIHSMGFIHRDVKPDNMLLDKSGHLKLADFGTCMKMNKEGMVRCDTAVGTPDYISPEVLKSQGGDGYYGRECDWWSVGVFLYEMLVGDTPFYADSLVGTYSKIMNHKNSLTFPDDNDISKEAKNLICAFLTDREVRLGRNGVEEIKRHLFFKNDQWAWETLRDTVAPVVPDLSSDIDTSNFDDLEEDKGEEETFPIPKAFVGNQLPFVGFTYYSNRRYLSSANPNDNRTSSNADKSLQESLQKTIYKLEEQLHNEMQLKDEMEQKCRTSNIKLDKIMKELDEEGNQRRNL

| SMILES | IC50 [1] [nM] | IC50 [2] [nM] |
| --- | --- | --- |
| O=C(c1cn(CCO)c2cc(-c3cn[nH]c3)ccc12)C1COc2ccccc2C1 (stereo not shown) [Compound 2-23] | 11 to 50 | 11 to 50 |
| COc1[nH]ncc1-c1cc2c(cn1)c(C(=O)C1COc3ccc(Cl)cc3C1)cn2CCN(C)C (stereo not shown) [Compound 1-60, (6-chlorochroman-3-yl)(1-(2-(dimethylamino)ethyl)-6-(5-methoxy-1H-pyrazol-4-yl)-1H-pyrrolo[3,2-c]pyridin-3-yl)methanone metanesulfonic acid] | < 10 | < 10 |
| O=C(c1cn(CC2CC(O)C2)c2cc(-c3cn[nH]c3Cl)ncc12)C1COc2ccc(Cl)cc2C1 (stereo not shown) [Compound 1-38] | 11 to 50 | < 10 |
| COc1ccc2c(c1)CC(C(=O)c1cn(CCO)c3cc(-c4c[nH]nc4Cl)ccc13)CO2 (stereo not shown) [Compound 2-15] | < 10 | < 10 |
| COc1n[nH]cc1-c1ccc2c(C(=O)[C@@H]3COc4ccc(Cl)cc4C3)cn(CCO)c2c1 (single isomer, unassigned) [Compound 2-18] | 11 to 50 | < 10 |
| CC(C)(O)Cn1cc(C(=O)C2COc3ccc(Cl)cc3C2)c2cnc(-c3cn[nH]c3F)nc21 (stereo not shown) [Compound 1-54] | 11 to 50 | < 10 |
| COc1n[nH]cc1-c1ccc2c(C(=O)C3COc4ccc(Cl)cc4C3)nn(C[C@H](C)O)c2c1 (stereo partly shown) [Compound 2-35] | 51 to 500 | 11 to 50 |
| COc1n[nH]cc1-c1ccc2c(C(=O)C3Cc4ccccc4O3)nn(CCO)c2c1 (stereo not shown) [Compound 2-30] | 51 to 500 | 51 to 500 |
| C[C@@H](O)Cn1cc(C(=O)C2COc3ccc(Cl)cc3C2)c2cnc(-c3cn[nH]c3F)nc21 (stereo partly shown) [Compound 1-47] | 11 to 50 | < 10 |

The next lines start with the values.

| IC50 [1] [nM] | IC50 [2] [nM] | SMILES |
| --- | --- | --- |
| 11 to 50 | < 10 | C[C@H](O)Cn1cc(C(=O)C2COc3ccc(Cl)cc3C2)c2cnc(-c3cn[nH]c3Cl)cc21 (stereo partly shown) [Compound 1-7] |
| 11 to 50 | 11 to 50 | C[C@H](O)Cn1cc(C(=O)[C@@H]2COc3ccc(Cl)cc3C2)c2cnc(-c3cn[nH]c3Cl)cc21 [Compound 1-11] |
| 11 to 50 | < 10 | C[C@H](O)Cn1cc(C(=O)C2COc3ccc(Cl)cc3C2)c2cnc(-c3cn[nH]c3Cl)nc21 (stereo partly shown) [Compound 1-45] |
| < 10 | < 10 | C[C@@H](O)Cn1cc(C(=O)[C@@H]2COc3ccc(F)cc3C2)c2cnc(-c3cn[nH]c3F)nc21 [Compound 1-51] |
| > 501 | 51 to 500 | COc1n[nH]cc1-c1ccc2c(C(=O)c3coc4ccccc34)nn(CCO)c2c1 [Compound 2-32] |
| 11 to 50 | < 10 | COc1n[nH]cc1-c1ccc2c(C(=O)[C@@H]3COc4ccc(Cl)cc4C3)cn(CC(C)O)c2c1 (stereo partly shown) [Compound 1-42] |
| 51 to 500 | 11 to 50 | COc1[nH]ncc1-c1cc2c(cn1)c(C(=O)[C@H]1COc3ccc(Cl)cc3C1)cn2C[C@H](C)O [Compound 1-34] |
| > 501 | > 501 | COc1n[nH]cc1-c1cc2c(cn1)c(C(=O)C1COc3ccc(Cl)cc3C1)cn2CCO (stereo not shown) [Compound 1-1] |
| 11 to 50 | < 10 | C[C@H](O)Cn1cc(C(=O)[C@@H]2COc3ccc(Cl)cc3C2)c2cnc(-c3cn[nH]c3F)cc21 [Compound 1-30] |
| < 10 | < 10 | CC(C)(O)Cn1cc(C(=O)[C@@H]2COc3ccc(Cl)cc3C2)c2cnc(-c3cn[nH]c3F)cc21 [Compound 1-31] |
| 11 to 50 | < 10 | O=C(c1cn(CCO)c2cc(-c3c[nH]nc3Cl)ccc12)C1COc2ccccc2C1 (stereo not shown) [Compound 2-6] |
| 11 to 50 | < 10 | O=C(c1nn(CCO)c2cc(-c3cn[nH]c3)ccc12)C1COc2ccc(F)cc2O1 (stereo not shown) [Compound 3-3] |
| > 501 | 51 to 500 | COc1n[nH]cc1-c1ccc2c(C(=O)[C@H]3COc4ccc(Cl)cc4C3)cn(CCO)c2c1 (single isomer, unassigned) [Compound 2-19] |
| < 10 | < 10 | C[C@H](O)Cn1cc(C(=O)[C@@H]2COc3ccc(Cl)cc3C2)c2cnc(-c3cn[nH]c3Cl)nc21 [Compound 1-46] |
